The supplement of paper PMC4976141
± gives the uncertainty stated by the source.

Key:
[1] = tested on: MKN-45; test: % viability under drug (72 h drug + 72 h recovery), miRNA mimic relative to NTC in DMSO; higher = more surviving cells; settings: drug used in drug arm: crizotinib 1 uM; treatment: drug
Procedure: (§1)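 26 miRNA mimics were transfected into 8 cancer cell lines in triplicate. 48 h post-transfection, cells were treated 72 h with DMSO or a line-specific drug, then recovered 72 h drug-free. Drugs: COLO-205 AZ628 1 uM, MKN-45 crizotinib 1 uM, NCI-H596 paclitaxel 6 uM, EVSA-T GDC-0980 2.5 uM, M14 AZ628 1 uM, HCC-1954 GDC-0980 2.5 uM, NCI-H441 carboplatin 2.5 uM, SKBr3 lapatinib 1 uM. Surviving cells are expressed as % of NTC-transfected cells in DMSO (the NTC drug arm itself is about 30-50%), mean +- SEM.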

[2] = tested on: SK-BR-3; test: as above; settings: drug used in drug arm: lapatinib 1 uM; treatment: drug
Procedure: as §1

[3] = tested on: M14; test: as above; settings: drug used in drug arm: AZ628 1 uM; treatment: drug
Procedure: as §1

[4] = tested on: NCI-H596; test: as above; settings: drug used in drug arm: paclitaxel 6 uM; treatment: drug
Procedure: as §1

[5] = tested on: HCC-1954; test: as above; settings: drug used in drug arm: GDC-0980 2.5 uM; treatment: drug
Procedure: as §1

[6] = tested on: COLO-205; test: as above; settings: drug used in drug arm: AZ628 1 uM; treatment: drug
Procedure: as §1

[7] = tested on: NCI-H441; test: as above; settings: drug used in drug arm: carboplatin 2.5 uM; treatment: drug
Procedure: as §1

[8] = tested on: EVSA-T; test: as above; settings: drug used in drug arm: GDC-0980 2.5 uM; treatment: drug
Procedure: as §1

[9] = tested on: MKN-45; test: % viability in DMSO, miRNA mimic relative to NTC in DMSO; higher = less cytotoxic; settings: drug used in drug arm: crizotinib 1 uM; treatment: DMSO
Procedure: as §1

[10] = tested on: SK-BR-3; test: as above; settings: drug used in drug arm: lapatinib 1 uM; treatment: DMSO
Procedure: as §1

[11] = tested on: M14; test: as above; settings: drug used in drug arm: AZ628 1 uM; treatment: DMSO
Procedure: as §1

[12] = tested on: NCI-H596; test: as above; settings: drug used in drug arm: paclitaxel 6 uM; treatment: DMSO
Procedure: as §1

[13] = tested on: HCC-1954; test: as above; settings: drug used in drug arm: GDC-0980 2.5 uM; treatment: DMSO
Procedure: as §1

[14] = tested on: COLO-205; test: as above; settings: drug used in drug arm: AZ628 1 uM; treatment: DMSO
Procedure: as §1

[15] = tested on: NCI-H441; test: as above; settings: drug used in drug arm: carboplatin 2.5 uM; treatment: DMSO
Procedure: as §1

[16] = tested on: EVSA-T; test: as above; settings: drug used in drug arm: GDC-0980 2.5 uM; treatment: DMSO
Procedure: as §1

[17] = tested on: PC9; test: cell count fold change with erlotinib, miRNA mimic vs non-targeting control (log2 ratio); higher = more drug-tolerant survivors than NTC; settings: erlotinib 1 µM; 72 h drug + 72 h drug-free recovery; perturbation: miRNA mimic

Sequence | % viability under drug [1] [%] | % viability under drug [2] [%] | % viability under drug [3] [%] | % viability under drug [4] [%] | % viability under drug [5] [%] | % viability under drug [6] [%] | % viability under drug [7] [%] | % viability under drug [8] [%] | % viability in DMSO [9] [%] | % viability in DMSO [10] [%] | % viability in DMSO [11] [%] | % viability in DMSO [12] [%] | % viability in DMSO [13] [%] | % viability in DMSO [14] [%] | % viability in DMSO [15] [%] | % viability in DMSO [16] [%] | cell count fold change with erlotinib [17]
GUCAUACACGGCUCUCCUCUCU | 0.526 ± 0.15 | 12.8 ± 1.4 | 1.73 ± 0.53 | 0.466 ± 0.077 | 1.04 ± 0.13 | 33 ± 2.9 | 3.92 ± 0.51 | 0.124 ± 0.028 | 10.5 ± 0.39 | 17.1 ± 4.5 | 15.5 ± 2.3 | 9.78 ± 0.74 | 29.6 ± 4.2 | 106 ± 3.9 | 8.42 ± 0.15 | 3.87 ± 1.8 | -5.7
UAGGUAGUUUCAUGUUGUUGGG | 1.52 ± 0.25 | 16.1 ± 2.1 | 6.29 ± 0.61 | 1.48 ± 0.34 | 1.26 ± 0.1 | 34.7 ± 0.96 | 6.39 ± 0.21 | 0.1635 ± 0.0015 | 49.8 ± 27 | 39.6 ± 14 | 69.5 ± 28 | 18.4 ± 2.9 | 57.1 ± 7.2 | 93.2 ± 4.5 | 23.3 ± 13 | 11.4 ± 8.3 | -5.25
UCUACAAAGGAAAGCGCUUUCU | 1.63 ± 0.29 | 26 ± 2.1 | 6.38 ± 0.2 | 2.12 ± 0.19 | 2.02 ± 0.14 | 47.79 ± 0.091 | 12.8 ± 1.1 | 1.13 ± 0.19 | 48.8 ± 8.7 | 49.1 ± 3.5 | 63 ± 19 | 80.5 ± 9.8 | 68.8 ± 1.8 | 109 ± 3.9 | 41.8 ± 3.1 | 37.4 ± 6.7 | 0.22
UGUCAGUUUGUCAAAUACCCCA | 2.37 ± 0.29 | 27.4 ± 1.9 | 16.4 ± 2.8 | 0.42 ± 0.093 | 0.617 ± 0.0095 | 38 ± 0.5 | 5.55 ± 0.62 | 0.172 ± 0.0035 | 142 ± 23 | 104 ± 12 | 129 ± 10 | 22.8 ± 1.2 | 31.9 ± 3.4 | 98.3 ± 4.3 | 27.3 ± 6.4 | 28 ± 2.1 | -5.21
